Experimental data taken from patent publication US8440830B2, “Tetrahydro-fused pyridines as histone deacetylase inhibitors” (4SC AG, priority 2007, dated 2013).
Read-outs that look alike come from different tables or passages of the source.

What was measured:
[1] = system: histone H3 hyperacetylation in HeLa cervical carcinoma cells; assay: Cellular histone H3 hyperacetylation assay; assay type: cell-based; conditions: Homo sapiens, 24 h treatment
From the text: To assess the cellular efficacy of a histone deacetylase inhibitor in vitro, an assay is set up in black clear-bottom 96-well plates and optimized for use on the Cellomics “ArrayScan II” platform for a quantitative calculation of histone acetylation. The protocol uses a polyclonal rabbit antibody, specifically binding to acetylated lysine 1-20 (including K 9 and K14) of human histone H3 on fixed cells with an Alexa Fluor 488 labeled goat anti rabbit-IgG used for counterstaining 5×10^3 HeLa cervical carcinoma cells/well (ATCC CCL-2) in 200 μl Dulbecco's modified Eagle's medium (DMEM) containing 10% fetal calf serum are seeded at day 1 in Packard view plates and incubated for 24 h under standard cell culture conditions. On day 2, 1 μl test compound (200× final concentration) is added and incubation continued for further 24 h. On day 3, the culture medium is discarded and attached cells fixed for 15 min at room temperature by addition of 100 μl fixation buffer (3.7% v:v formaldehyde in phosphate buffered saline/PBS). After discarding the fixation buffer and one wash with blocking solution (1% BSA, 0.3% Tween 20 in PBS), cells are permeabilized at room temperature by addition of 100 μl /well permeabilization buffer (30.8 mM NaCl, 0.54 mM Na2HPO4, 0.31 mM KH2PO4, 0.1% v:v Triton X-100) for 15 min at room temperature. After discarding the permeabilization buffer and washing twice with 100 μl/well blocking solution at room temperature, the 1st antibody (anti-K1-20 histone H3 antibody, Calbiochem No. 382158) in blocking solution (50 μl/well) is added. After incubation for 1 h at room temperature, the wells are washed twice at room temperature with 100 μl/well blocking solution before addition of the 2nd antibody (goat-anti-rabbit Alexa Fluor 488; MoBiTec No. A -11008) in blocking solution (50 μl well). After further incubation for 1 h at room temperature, wells are washed twice with 100 μl/well blocking solution at room temperature. Finally, 100 μl/well PBS are added and image analysis performed on the Cellomics “ArrayScan II” platform. For EC50 determination, the percentage of positive cells showing nuclear fluorescence is determined and EC50 calculation done from concentration-effect curves by means of non-linear regression. For calibration, a positive (reference HDAC inhibitors like SAHA or NVP LBH-589) and a negative control were included.

A549 NSCLC cells [2] = assay: Cellular cytotoxicity assay (Alamar Blue), A549; assay type: cell-based; conditions: Homo sapiens, 72 h, upper end given as ≧100, read-out: IC50 (μM), cytotoxicity towards A549 NSCLC cells
In short: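 Resazurin-to-resorufin fluorescence (ex 544, em 590 nm, after 4 h) gave viability as % of untreated cells following 72 h compound exposure at 37 °C. Compounds were added in semi-logarithmic dilutions 24 h post-seeding, quadruplicate wells; IC50 fitted by non-linear regression of concentration-effect curves.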

A549 NSCLC cells [3] = assay: Cell cycle analysis by flow cytometry; assay type: cell-based, human; conditions: A549, 24 h treatment
Protocol: A549 NSCLC cells (ATTC CCL-185) are cultivated in DMEM with high glucose (supplemented with 10% FBS) at 5% CO2 and 37° C. in a humidified atmosphere under standard cell culture conditions. 24 h before compound treatment, cells are seeded at 5×10^4 cells/ml (=5×10^5 cells/10 cm cell culture dish) to allow logarithmic proliferation during the experiment. After 24 h, cells were treated with test compound or 0.5 vol % DMSO as a control. After 24 h and 48 h treatment, the culture medium is collected and detached, floating cells are collected by short centrifugation (5 min at 1200 rpm). Attached cells are washed once with 5 ml PBS, detached by treatment with 3 ml trypsin/EDTA solution (short incubation for 3-5 min) and—together with detached, floating cells—transferred into 15 ml Falcon tubes. The cell culture dish is washed with 10 ml DMEM to collect all remaining cells. After centrifugation for 5 min at 1200 rpm at room temperature, the supernatant is discarded and the cell pellet washed twice with 10 ml PBS. The supernatant is discarded, the cells resuspended in 4 ml ice-cold fixation solution (70 vol % ethanol, 30 vol % H2O; stored at −20° C.) and stored at −20° C. overnight. Next, 10 ml PBS (4° C.) is added to the cells, before centrifugation for 5 min at 1200 rpm (4° C.). The supernatant is discarded, the cell pellet washed once with 10 ml PBS (4° C.) and the cell pellet finally resuspended in about 1 ml staining solution (10 μg/ml RNAse A, 10 μg/ml propidiumiodide in PBS, final volume dependent on cell number). After incubation for 30 min at room temperature in the dark, cells are stored on ice and analyzed using the Becton Dickinson FACS Canto device. Analysis is done at an excitation of λ=488 nm with emission set as λ=600 nm.
Data analysis: Cells are analyzed according to size, granularity and propidiumiodide intensity. Size and granularity of cells are determined by measurement of forward scatter (FSC) and side scatter (SSC) of the λ=488 nm excitation light, respectively. To discriminate cells with 4N DNA content from cell doublets (two attached cells with 2N DNA content each), the ratio between the area under the propidiumiodide peak (PE-A) and the height of the propidiumiodide peak (PE-H) for each cell is determined. Cell doublets need more time to pass through the laser beam, which causes a broadening of the propidiumiodide peak and an increase of the ratio PE-A/PE-H. Using this analysis, cells in 4N and cell doublets appear as distinct clouds in a scatter plot and are excluded from the analysis. Thus, the area under the propidiumiodide peak at λ=600 nm (PE-A) is a measure for the DNA content of the cells. PE-A is blotted against the measured cell number in a histogram in order to determine the percentage of analyzed cells in an individual stage of the cell cycle.

[4] = read-out: EC50, induction of histone H3 hyperacetylation
[5] = read-out: −lg EC50, induction of histone H3 hyperacetylation

Row | SMILES | EC50 [1, 4] [µM] | EC50 [1, 5] [µM] | IC50 (A549 NSCLC cells [2]) [µM] | concentration inducing arrest in G1, depletion of cells in the S-phase and reduction of cells in the G2/M-phase (A549 NSCLC cells [3])
1 | COc1ccc(S(=O)(=O)N2CCc3nc(C(=O)Nc4ccccc4N)sc3C2)cc1 [Example 153, N-(2-aminophenyl)-5-[(4-methoxyphenyl)sulfonyl]-4,5,6,7-tetrahydro[1,3]thiazolo[5,4-c]pyridine-2-carboxamide] | 0.15 to 15 | 0.251 to 15.8 | ≥ 0.2 | around 3 μM
2 | Cc1ccc(OC(=O)N2CCc3nc(C(=O)Nc4ccccc4N)sc3C2)cc1 [Example 182, 4-methylphenyl 2-[(2-aminophenyl)carbamoyl]-6,7-dihydro[1,3]thiazolo[5,4-c]pyridine-5(4H)-carboxylate] | 0.15 to 15 | 0.251 to 15.8 | ≥ 0.2 | around 3 μM
3 | COc1ccc(OC(=O)N2CCc3nc(C(=O)Nc4ccccc4N)sc3C2)cc1OC [Example 186, 3,4-dimethoxyphenyl 2-[(2-aminophenyl)carbamoyl]-6,7-dihydro[1,3]thiazolo[5,4-c]pyridine-5(4H)-carboxylate] | 0.15 to 15 | 0.251 to 15.8 | ≥ 0.2 | 
4 | Nc1ccccc1NC(=O)c1nc2c(s1)CN(C(=O)OCc1cccnc1)CC2 [Example 189, Pyridin-3-ylmethyl 2-[(2-aminophenyl)carbamoyl]-6,7-dihydro[1,3]thiazolo[5,4-c]pyridine-5(4H)-carboxylate] | 0.15 to 15 | 0.251 to 15.8 | ≥ 0.2 | around 3 μM
5 | Nc1ccccc1NC(=O)c1nc2c(s1)CN(C(=O)C=Cc1ccc3c(c1)OCO3)CC2 [Example 190, N-(2-aminophenyl)-5-[3-(1,3-benzodioxol-5-yl)prop-2-enoyl]-4,5,6,7-tetrahydro[1,3]thiazolo[5,4-c]pyridine-2-carboxamide] | 0.15 to 15 | 0.251 to 15.8 | ≥ 0.2 | 
6 | Nc1ccccc1NC(=O)c1nc2c(s1)CN(C(=O)C=Cc1ccc(O)c(O)c1)CC2 [Example 191, N-(2-aminophenyl)-5-[3-(3,4-dihydroxyphenyl)prop-2-enoyl]-4,5,6,7-tetrahydro[1,3]thiazolo[5,4-c]pyridine-2-carboxamide] | 0.15 to 15 | 0.251 to 15.8 | ≥ 0.2 | 
7 | Nc1ccccc1NC(=O)c1nc2c(s1)CN(c1ncccn1)CC2 [Example 192, N-(2-aminophenyl)-5-pyrimidin-2-yl-4,5,6,7-tetrahydro[1,3]thiazolo[5,4-c]pyridine-2-carboxamide] | 0.15 to 15 | 0.251 to 15.8 | ≥ 0.2 | 
8 | Nc1ccccc1NC(=O)c1nc2c(s1)CN(c1nccc(-c3cccnc3)n1)CC2 [Example 193, N-(2-aminophenyl)-5-(4-pyridin-3-ylpyrimidin-2-yl)-4,5,6,7-tetrahydro[1,3]thiazolo[5,4-c]pyridine-2-carboxamide] | 0.15 to 15 | 0.251 to 15.8 | ≥ 0.2 | 
9 | Nc1ccccc1NC(=O)c1nc2c(s1)CN(c1ccc([N+](=O)[O-])cn1)CC2 [Example 194, N-(2-aminophenyl)-5-(5-nitropyridin-2-yl)-4,5,6,7-tetrahydro[1,3]thiazolo[5,4-c]pyridine-2-carboxamide] | 0.15 to 15 | 0.251 to 15.8 | ≥ 0.2 | 
10 | Cc1ccc(S(=O)(=O)Nc2cnc(N3CCc4nc(C(=O)Nc5ccccc5N)sc4C3)nc2)cc1 [Example 196, N-(2-aminophenyl)-5-(5-{[(4-methylphenyl)sulfonyl]amino}pyrimidin-2-yl)-4,5,6,7-tetrahydro[1,3]thiazolo[5,4-c]pyridine-2-carboxamide] | 0.15 to 15 | 0.251 to 15.8 | ≥ 0.2 | 
11 | Cc1ccc(S(=O)(=O)Nc2ccc(N3CCc4nc(C(=O)Nc5ccccc5N)sc4C3)nc2)cc1 [Example 197, N-(2-aminophenyl)-5-(5-{[(4-methylphenyl)sulfonyl]amino}pyridin-2-yl)-4,5,6,7-tetrahydro[1,3]thiazolo[5,4-c]pyridine-2-carboxamide] | 0.15 to 15 | 0.251 to 15.8 | ≥ 0.2 | 
